Laboratory results as given in patent US11629171B2, “Beta-hairpin peptidomimetics” (POLYPHOR AG, priority 2017, dated 2023).
Converted amounts (≈) assume the structure as drawn. Where a SMILES comes first, the peptide text is derived from it. Bridges are numbered along the chain shown (N, C = ends). Roman numbers before positions name the chains, in order. [ ]: non-standard residue; d: D form. Tle = CC(C)(C)[C@H](N)C(=O)O; NMeV = CN[C@H](C(=O)O)C(C)C; dDab = NCC[C@@H](N)C(=O)O; hSer = N[C@@H](CCO)C(=O)O; Orn = NCCC[C@H](N)C(=O)O; Dab = NCC[C@H](N)C(=O)O; Dap = NC[C@H](N)C(=O)O

Key:
Format in all cases: cell-based
[1] = tested on: Klebsiella pneumoniae SSI #3010; conditions: SSI #3010
Description: (§1) The in vitro antimicrobial activities of the peptides were determined in 96-well plates (Greiner, polystyrene) by the standard CLSI broth microdilution method (Clinical and Laboratory Standards Institute 2014. Performance standards for antimicrobial susceptibility testing, 24th informational supplement. Approved standard CLSI M100-S24; Clinical and Laboratory Standards Institute, Wayne, Pa.). The following microorganisms were used to determine antibiotic activity of the peptides: Escherichia coli ATCC 25922, Klebsiella pneumoniae SSI #3010^a), Acinetobacter baumannii DSM 30008, Pseudomonas aeruginosa ATCC 27853 and the clinical isolates Escherichia coli 926415^b), Klebsiella pneumoniae 968733^b), Acinetobacter baumannii 872842^b), Enterobacter cloacae 848840^b) and Escherichia coli MCR-1 Af45^c). Before preparation of inocula, Escherichia coli MCR-1 Af45 was subcultured on Mueller-Hinton II (MH-cation adjusted) agar containing 2 μg/mL colistin. ^a) Obtained from Statens Serum Institut (SSI), Copenhagen, Denmark^b) Obtained from International Health Management Associates, Inc. (IHMA Europe Sàrl), Epalinges, Switzerland^c) Obtained from Prof. Patrice Nordmann, University of Fribourg, Fribourg, Switzerland
(§2) Inocula of the microorganisms were diluted into Mueller-Hinton II (MH-cation adjusted) broth and compared with a 0.5 McFarland standard to give appr. 10^6 colony forming units (CFU)/mL. Aliquots (90 μL) of inoculum were added to 10 μL of MH-II broth+P-80 (Polysorbate 80, 0.002% final concentration, v/v) containing the peptide in serial two-fold dilutions. Antimicrobial activities of the peptides were expressed as the minimal inhibitory concentration (MIC) in μg/mL at which no visible growth was observed after 18-20 hours of incubation at 35° C.

[2] = tested on: Acinetobacter baumannii DSM 30008; conditions: DSM 30008
Description: as §1, §2

[3] = tested on: Pseudomonas aeruginosa ATCC 27853; conditions: ATCC 27853
Description: as §1, §2

[4] = tested on: Escherichia coli ATCC 25922; conditions: ATCC 25922
Description: as §1, §2

[5] = tested on: human red blood cells (hRBC); test: Hemolysis; conditions: red cells of human, 1 h, 200
Description: The peptides were tested for their hemolytic activity against human red blood cells (hRBC). Fresh hRBC were washed four times with phosphate buffered saline (PBS) and centrifuged for 10 min at 3000×g. Compounds (200 μg/mL) were incubated with 20% hRBC (v/v) for 1 h at 37° C. and shaking at 300 rpm. A value of 0% and 100% cell lysis, respectively, was determined by incubation of hRBC in the presence of PBS containing 10% water and 2% Triton X-100 in H2O, respectively. The samples were centrifuged, the supernatants were ˜7.5-fold diluted in PBS buffer and the optical densities (OD) were measured at 540 nm and blank corrected. The 100% lysis value (OD540Triton X-100) gave an OD540 of approximately 0.5-1.0.
Percent hemolysis was calculated as follows: (OD540peptide/OD540Triton X-100)×100%.

Row | MIC [1] | MIC [2] | MIC [3] | MIC [4] | SMILES | Hemolysis at 200 μg/mL [5]
1 | 0.125 µg/mL (≈ 0.0536 µM) | 0.125 µg/mL (≈ 0.0536 µM) | 0.25 µg/mL (≈ 0.107 µM) | 0.125 µg/mL (≈ 0.0536 µM) | CC(=O)N[C@H](C(=O)N[C@H]1CCCNC(=O)[C@@H](CC(N)=O)NC(=O)[C@H](C(C)(C)C)NC(=O)[C@H](CO)NC(=O)[C@H](Cc2c[nH]c3ccccc23)NC(=O)[C@H](CCO)NC(=O)[C@@H](CCN)NC(=O)[C@H](CCC(=O)N[C@@H](CCN)C(=O)N[C@H](C(=O)N[C@@H](CN)C(=O)N[C@H]2CCNC(=O)[C@H]([C@@H](C)O)NC(=O)[C@H](CCN)NC(=O)[C@H](CCN)NC(=O)[C@H](CC(C)C)NC(=O)[C@@H](CC(C)C)NC(=O)[C@H](CCN)NC2=O)[C@@H](C)O)NC(=O)[C@H](CO)NC(=O)[C@H](Cc2ccc(O)cc2)NC1=O)C(C)C [Ex. 19] (I: Ac-V[Orn]YSE[dDab][hSer]WS[Tle][dN] / II: [Dab]T[Dap][Dab][Dab][dL]L[Dab][Dab]T; lactam I:2-I:C, II:4-II:C; amide I:5-II:N) | <1%
2 | 0.25 µg/mL (≈ 0.105 µM) | 0.25 µg/mL (≈ 0.105 µM) | 0.125 µg/mL (≈ 0.0524 µM) | 0.125 µg/mL (≈ 0.0524 µM) | CN[C@H](C(=O)N[C@H](C(=O)N[C@@H](Cc1ccc(O)cc1)C(=O)N[C@H]1CSSC[C@@H](C(=O)N[C@H](C(=O)N[C@@H](C)C(=O)N[C@@H](CO)C(N)=O)C(C)C)NC(=O)[C@H](Cc2c[nH]c3ccccc23)NC(=O)[C@H](CCO)NC(=O)[C@@H](CCN)NC(=O)[C@H](CCC(=O)N[C@@H](CCN)C(=O)N[C@H](C(=O)N[C@@H](CCN)C(=O)N[C@H]2CCNC(=O)[C@H]([C@@H](C)O)NC(=O)[C@H](CCN)NC(=O)[C@H](CCN)NC(=O)[C@H](CC(C)C)NC(=O)[C@@H](CC(C)C)NC(=O)[C@H](CCN)NC2=O)[C@@H](C)O)NC1=O)[C@@H](C)O)C(C)C [Ex. 183] (I: H-[NMeV]TYCE[dDab][hSer]WCVAS-NH2 / II: [Dab]T[Dab][Dab][Dab][dL]L[Dab][Dab]T; disulfide I:4-I:9; amide I:5-II:N; lactam II:4-II:C) | <1%
3 | 0.125 µg/mL (≈ 0.0516 µM) | 0.5 µg/mL (≈ 0.206 µM) | 0.5 µg/mL (≈ 0.206 µM) | 0.125 µg/mL (≈ 0.0516 µM) | CC(=O)N[C@H](C(=O)N[C@@H](CCN)C(=O)N[C@@H](Cc1ccc(O)cc1)C(=O)N[C@@H](CN)C(=O)N[C@@H](CCC(=O)N[C@@H](CCN)C(=O)N[C@H](C(=O)N[C@@H](CN)C(=O)N[C@H]1CCNC(=O)[C@H]([C@@H](C)O)NC(=O)[C@H](CCN)NC(=O)[C@H](CCN)NC(=O)[C@H](CC(C)C)NC(=O)[C@@H](CC(C)C)NC(=O)[C@H](CCN)NC1=O)[C@@H](C)O)C(=O)N[C@H](CCN)C(=O)N[C@@H](CO)C(=O)N[C@@H](Cc1c[nH]c2ccccc12)C(=O)N[C@@H](CO)C(=O)N[C@H](C(=O)N[C@@H](CCC(=O)O)C(=O)N[C@@H](CO)C(N)=O)C(C)(C)C)C(C)C [Ex. 229] (I: Ac-V[Dab]Y[Dap]E[dDab]SWS[Tle]ES-NH2 / II: [Dab]T[Dap][Dab][Dab][dL]L[Dab][Dab]T; amide I:5-II:N; lactam II:4-II:C) | 2%
4 | 1 µg/mL (≈ 0.415 µM) | 1 µg/mL (≈ 0.415 µM) | 0.5 µg/mL (≈ 0.208 µM) | 0.5 µg/mL (≈ 0.208 µM) | CC(C)C[C@@H]1NC(=O)[C@@H](CC(C)C)NC(=O)[C@H](CCN)NC(=O)[C@@H](NC(=O)[C@H](CCN)NC(=O)[C@@H](NC(=O)[C@H](CCN)NC(=O)CC[C@@H]2NC(=O)[C@H](CCN)NC(=O)[C@H](Cc3ccc(O)cc3)NC(=O)[C@@H](NC(=O)[C@@H](N)C(C)C)CCC(=O)NCC[C@@H](C(=O)N[C@@H](CO)C(=O)O)NC(=O)[C@H](C(C)(C)C)NC(=O)[C@H](CO)NC(=O)[C@H](Cc3c[nH]c4ccccc34)NC(=O)[C@H]([C@@H](C)O)NC(=O)[C@@H](CCN)NC2=O)[C@@H](C)O)CCNC(=O)[C@H]([C@@H](C)O)NC(=O)[C@H](CCN)NC(=O)[C@H](CCN)NC1=O [Ex. 56] (I: H-VEY[Dab]E[dDab]TWS[Tle][Dab]S-OH / II: [Dab]T[Dab][Dab][Dab][dL]L[Dab][Dab]T; lactam I:2-I:11, II:4-II:C; amide I:5-II:N) | <1%
5 | 0.25 µg/mL (≈ 0.104 µM) | 0.5 µg/mL (≈ 0.208 µM) | 0.5 µg/mL (≈ 0.208 µM) | 0.125 µg/mL (≈ 0.052 µM) | CC(=O)N[C@H](C(=O)N[C@H](C(=O)N[C@@H](Cc1ccc(O)cc1)C(=O)N[C@H]1CC(=O)NCC[C@@H](C(=O)N[C@H](C(=O)N[C@@H](C)C(=O)N[C@@H](CO)C(N)=O)C(C)C)NC(=O)[C@H](Cc2c[nH]c3ccccc23)NC(=O)[C@H](CCO)NC(=O)[C@@H](CCN)NC(=O)[C@H](CCC(=O)N[C@@H](CCN)C(=O)N[C@H](C(=O)N[C@@H](CCN)C(=O)N[C@H]2CCNC(=O)[C@H]([C@@H](C)O)NC(=O)[C@H](CCN)NC(=O)[C@H](CCN)NC(=O)[C@H](CC(C)C)NC(=O)[C@@H](CC(C)C)NC(=O)[C@H](CCN)NC2=O)[C@@H](C)O)NC1=O)[C@@H](C)O)C(C)C [Ex. 187] (I: Ac-VTYDE[dDab][hSer]W[Dab]VAS-NH2 / II: [Dab]T[Dab][Dab][Dab][dL]L[Dab][Dab]T; lactam I:4-I:9, II:4-II:C; amide I:5-II:N) | <1%
6 | 0.125 µg/mL (≈ 0.0512 µM) | 0.125 µg/mL (≈ 0.0512 µM) | 0.125 µg/mL (≈ 0.0512 µM) | 0.125 µg/mL (≈ 0.0512 µM) | CC(=O)N[C@@H](CCN)C(=O)N[C@H](C(=O)N[C@H](C(=O)N[C@@H](Cc1ccc(O)cc1)C(=O)N[C@H]1CSSC[C@@H](C(=O)N[C@H](C(=O)N[C@@H](CCN)C(N)=O)C(C)(C)C)NC(=O)[C@H](Cc2c[nH]c3ccccc23)NC(=O)[C@H](CO)NC(=O)[C@@H](CCN)NC(=O)[C@H](CCC(=O)N[C@@H](CCN)C(=O)N[C@H](C(=O)N[C@@H](CN)C(=O)N[C@H]2CCNC(=O)[C@H]([C@@H](C)O)NC(=O)[C@H](CCN)NC(=O)[C@H](CCN)NC(=O)[C@H](CC(C)C)NC(=O)[C@@H](CC(C)C)NC(=O)[C@H](CCN)NC2=O)[C@@H](C)O)NC1=O)[C@@H](C)O)C(C)C [Ex. 218] (I: Ac-[Dab]VTYCE[dDab]SWC[Tle][Dab]-NH2 / II: [Dab]T[Dap][Dab][Dab][dL]L[Dab][Dab]T; disulfide I:5-I:10; amide I:6-II:N; lactam II:4-II:C) | <1%
7 | 0.5 µg/mL (≈ 0.21 µM) | 0.25 µg/mL (≈ 0.105 µM) | 0.125 µg/mL (≈ 0.0525 µM) | 0.125 µg/mL (≈ 0.0525 µM) | CN[C@H](C(=O)N[C@@H](CN)C(=O)N[C@@H](Cc1ccc(O)cc1)C(=O)N[C@H]1CSSC[C@@H](C(=O)N[C@H](C(=O)N[C@@H](C)C(=O)N[C@@H](CO)C(N)=O)C(C)(C)C)NC(=O)[C@H](Cc2c[nH]c3ccccc23)NC(=O)[C@H]([C@@H](C)O)NC(=O)[C@@H](CCN)NC(=O)[C@H](CCC(=O)N[C@@H](CCN)C(=O)N[C@H](C(=O)N[C@@H](CCN)C(=O)N[C@H]2CCNC(=O)[C@H]([C@@H](C)O)NC(=O)[C@H](CCN)NC(=O)[C@H](CCN)NC(=O)[C@H](CC(C)C)NC(=O)[C@@H](CC(C)C)NC(=O)[C@H](CCN)NC2=O)[C@@H](C)O)NC1=O)C(C)C [Ex. 180] (I: H-[NMeV][Dap]YCE[dDab]TWC[Tle]AS-NH2 / II: [Dab]T[Dab][Dab][Dab][dL]L[Dab][Dab]T; disulfide I:4-I:9; amide I:5-II:N; lactam II:4-II:C) | <1%
